Results: US4965280A, “Antifungal carbinols” (E. I. Du Pont de Nemours and Company, priority 1989, dated 1990)

How the values were obtained:
GROUND CHERRY = test: Test F; assay type: in vivo, Physalis heterophylla
Source text: (§1) Weed species were planted 3 or 4 per 15-cm diameter pot in Sassafras sandy loam (pH 6.8; 1% OM). Cotton was planted separately in the same sized pot. Postemergence plantings were made 12-16 days prior to treating so plants were in the 2- to 3-leaf stage (5-12 cm tall). Preemergence plantings were made the day before treating. Compounds were sprayed in a suitable non-phytotoxic solvent at 374 l/ha, then after 3 weeks of growth in a greenhouse, plant responses were visually rated on a percent scale where 0=no injury and 100=plant death.

COCKLEBUR = test: Test F; assay type: in vivo, Xanthium pensylvanicum
Source text: as §1

SICKLEPOD = test: Test F; assay type: in vivo, Cassia obtusifolia
Source text: as §1

VELVETLEAF = test: Test F; assay type: in vivo, Abutilon theophrasti
Source text: as §1

BRDLF SNGLGRASS = test: Test F; assay type: in vivo, Brachiaria platyphylla
Source text: as §1

RICE INDICA TOL = test: Test C rice paddy; assay type: in vivo; conditions: 21 days
Method in brief: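 Silt loam saturated; rice (Japonica, Indica; 2.0–2.5 leaf) and weed seedlings/sprouted tubers (water plantain, Scirpus, Cyperus) transplanted, barnyardgrass seeded. D3–4: flood to 3 cm, held throughout. ≤24 h later: test cpd in nonphytotoxic solvent into paddy water. Greenhouse.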

Compound: C=C(c1ccc(F)cc1)C(O)(Cn1cncn1)c1ccc(F)cc1F (centres unmarked) [Example 4, 2-(2,4-Difluorophenyl)-3-(4-fluorophenyl)-1-(1H-1,2,4-triazol-1-yl)-3-buten-2-ol]
- plant response (GROUND CHERRY; PREEMERGENCE 0032 GM/HA): 0%
- plant response (GROUND CHERRY; PREEMERGENCE 0064 GM/HA): 0%
- plant response (GROUND CHERRY; PREEMERGENCE 0125 GM/HA): 0%
- plant response (GROUND CHERRY; PREEMERGENCE 0250 GM/HA): 0%
- plant response (GROUND CHERRY; PREEMERGENCE 0500 GM/HA): 0%
- plant response (COCKLEBUR; PREEMERGENCE 0032 GM/HA): 0%
- plant response (COCKLEBUR; PREEMERGENCE 0064 GM/HA): 0%
- plant response (COCKLEBUR; PREEMERGENCE 0125 GM/HA): 0%
- plant response (COCKLEBUR; PREEMERGENCE 0250 GM/HA): 0%
- plant response (COCKLEBUR; PREEMERGENCE 0500 GM/HA): 0%
- plant response (SICKLEPOD; PREEMERGENCE 0032 GM/HA): 0%
- plant response (SICKLEPOD; PREEMERGENCE 0064 GM/HA): 0%
- plant response (SICKLEPOD; PREEMERGENCE 0125 GM/HA): 0%
- plant response (SICKLEPOD; PREEMERGENCE 0250 GM/HA): 0%
- plant response (SICKLEPOD; PREEMERGENCE 0500 GM/HA): 0%
- plant response (VELVETLEAF; PREEMERGENCE 0032 GM/HA): 0%
- plant response (VELVETLEAF; PREEMERGENCE 0064 GM/HA): 0%
- plant response (VELVETLEAF; PREEMERGENCE 0125 GM/HA): 0%
- plant response (VELVETLEAF; PREEMERGENCE 0250 GM/HA): 0%
- plant response (VELVETLEAF; PREEMERGENCE 0500 GM/HA): 30%
- plant response (BRDLF SNGLGRASS; PREEMERGENCE 0032 GM/HA): 0%
- plant response (BRDLF SNGLGRASS; PREEMERGENCE 0064 GM/HA): 0%
- plant response (BRDLF SNGLGRASS; PREEMERGENCE 0125 GM/HA): 0%
- plant response (BRDLF SNGLGRASS; PREEMERGENCE 0250 GM/HA): 0%
- plant response (BRDLF SNGLGRASS; PREEMERGENCE 0500 GM/HA): 30%

Compound: C=C(c1ccccc1Cl)C(O)(Cn1cncn1)c1ccc(F)cc1F (centres unmarked) [Example 35]
- plant response (RICE INDICA TOL; 0032 G/HA): 0
- plant response (RICE INDICA TOL; 0125 G/HA): 55
- plant response (RICE INDICA TOL; 0500 G/HA): 55
- plant response (RICE INDICA TOL; 2000 G/HA): 60
